# From patent publication EP1200406B1, “CYCLIC AMIDES AND IMIDES HAVING SELECTIVE ANTAGONIST ACTIVITY AT ALPHA-1D ADRENERGIC RECEPTOR” (RECORDATI INDUSTRIA CHIMICA E FARMACEUTICA S.p.a., priority 1999, dated 2001)
# Where two headings read alike, the source gives them in different places.
# Assays:
# [1] = target: T1, human recombinant α1d adrenoceptor (Homo sapiens, UniProt P25100); assay: Radioligand binding ([3H]prazosin) on membranes of CHO cells expressing cloned α1d adrenoceptor; conditions: human cloned receptor, CHO cell membranes, 0.2 nM [3H]prazosin; read-out: Affinity (Ki) α1d
# T1 construct: expressed in transfected cells; host or cells: CHO cells (membranes)
# T1 sequence (P25100 1-572): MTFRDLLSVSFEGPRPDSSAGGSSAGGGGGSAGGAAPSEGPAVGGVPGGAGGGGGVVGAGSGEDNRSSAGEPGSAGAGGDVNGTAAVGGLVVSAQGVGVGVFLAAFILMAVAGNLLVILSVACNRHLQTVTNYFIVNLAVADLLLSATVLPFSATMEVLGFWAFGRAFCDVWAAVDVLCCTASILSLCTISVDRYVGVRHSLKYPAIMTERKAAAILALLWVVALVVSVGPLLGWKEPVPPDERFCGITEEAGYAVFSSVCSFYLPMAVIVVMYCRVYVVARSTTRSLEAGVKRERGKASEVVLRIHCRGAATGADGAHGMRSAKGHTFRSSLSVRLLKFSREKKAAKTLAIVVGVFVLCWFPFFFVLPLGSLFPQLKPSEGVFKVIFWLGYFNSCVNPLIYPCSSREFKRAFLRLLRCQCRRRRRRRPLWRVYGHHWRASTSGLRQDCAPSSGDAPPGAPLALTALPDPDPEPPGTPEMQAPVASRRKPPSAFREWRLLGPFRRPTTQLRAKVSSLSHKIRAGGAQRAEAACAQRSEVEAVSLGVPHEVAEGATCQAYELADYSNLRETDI
# Procedure: (§1) The determination of affinity for cloned subtypes of human α1 adrenergic receptors was performed in membranes from CHO cells (chinese hamster ovary cells) transfected by electroporation with DNA expressing the genes encoding each α1-adrenoceptor subtype, namely α1a, α1b and α1d.. Cloning and stable expression of the human α1-adrenoceptor gene were performed as previously described (Testa et al., Pharmacol. Comm. 6, 79-86 (1995)). CHO cell membranes were incubated in […] Tris pH 7.4 with 0.2 nM [^3H]prazosin, in a final volume of 1.02 ml for 30 minutes at 25°C, in the absence or presence of competing drugs (1 pM-10 µM). Non-specific binding was determined in the presence of 10 µM phentolamine. Incubation was stopped by addition of ice-cold Tris buffer and rapid filtration through 0.2% polyethyleneimine pretreated Schleicher & Schuell GF52 filters. […] The HeLa cells were grown as monolayers in Dulbecco's modified Eagle's medium (DMEM), supplemented with 10% foetal calf serum and gentamicin (100 µg/ml), 5% CO2, at 37°C. The cells were detached from the growth flask at 95% confluence by a cell scraper and were lysed in ice-cold 5 mM Tris and 5-mM EDTA buffer (pH 7.4). The homogenates were centrifuged at 40000 x g x 20 minutes and the membranes were re-suspended in a small volume of ice-cold 5 mM Tris and 5-mM EDTA buffer (pH 7.4) and immediately frozen and stored at -70°C until use. On the experiment day, the cell membranes were re-suspended in a buffer containing 50 mM Tris (pH 7.4), 2.5 mM MgCl2, 10 µM pargyline (Fargin et al., Nature 335, 358-360 (1988)). […] The incubation was stopped by addition of ice-cold Tris buffer and rapid filtration through 0.2%-polyethyleneimine-pretreated Schleicher & Schuell filters. The inhibition of specific binding of the radioligands by the drugs was analysed to estimate the IC50 value by using the non-linear curve-fitting programme Allfit (De Lean et al., Am. J. Physiol. 235, E97-E102 (1978)). The IC50 value was converted to an affinity constant (Ki) by the equation of Cheng & Prusoff (Biochem. Pharmacol. 22, 3099-3108 (1973)). Data were expressed as mean of Ki.
# [2] = target: T2, human 5-HT1A-serotoninergic receptor (Homo sapiens, UniProt P08908); assay: Radioligand binding ([3H]8-OH-DPAT) on membranes of HeLa cells expressing cloned 5-HT1A receptor; conditions: read-out: Affinity (Ki) 5-HT1A
# T2 construct: expressed in transfected cells; host or cells: HeLa cells (membranes)
# T2 sequence (P08908 1-422): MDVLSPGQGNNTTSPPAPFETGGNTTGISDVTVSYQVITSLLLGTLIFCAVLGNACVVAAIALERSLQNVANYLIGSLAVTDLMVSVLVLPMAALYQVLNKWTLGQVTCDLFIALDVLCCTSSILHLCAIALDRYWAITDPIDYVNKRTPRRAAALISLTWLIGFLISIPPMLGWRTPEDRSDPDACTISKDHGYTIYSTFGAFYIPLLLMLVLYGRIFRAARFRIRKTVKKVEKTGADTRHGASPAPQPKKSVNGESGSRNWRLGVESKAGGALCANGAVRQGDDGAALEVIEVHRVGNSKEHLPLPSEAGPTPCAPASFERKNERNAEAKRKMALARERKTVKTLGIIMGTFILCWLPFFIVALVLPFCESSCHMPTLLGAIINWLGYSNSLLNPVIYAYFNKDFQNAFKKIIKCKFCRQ
# Procedure: (§2) The determination of affinity for cloned subtypes of human α1 adrenergic receptors was performed in membranes from CHO cells (chinese hamster ovary cells) transfected by electroporation with DNA expressing the genes encoding each α1-adrenoceptor subtype, namely α1a, α1b and α1d.. Cloning and stable expression of the human α1-adrenoceptor gene were performed as previously described (Testa et al., Pharmacol. Comm. 6, 79-86 (1995)). CHO cell membranes were incubated in […] Tris pH 7.4 with 0.2 nM [^3H]prazosin, in a final volume of 1.02 ml for 30 minutes at 25°C, in the absence or presence of competing drugs (1 pM-10 µM). Non-specific binding was determined in the presence of 10 µM phentolamine. Incubation was stopped by addition of ice-cold Tris buffer and rapid filtration through 0.2% polyethyleneimine pretreated Schleicher & Schuell GF52 filters. Genomic clone G-21 coding for the human 5-HT1A-serotoninergic receptor was stably transfected in a human cell line (HeLa) (Fargin et al., J. Biol. Chem. 284, 14848-14852 (1989)). The HeLa cells were grown as monolayers in Dulbecco's modified Eagle's medium (DMEM), supplemented with 10% foetal calf serum and gentamicin (100 µg/ml), 5% CO2, at 37°C. The cells were detached from the growth flask at 95% confluence by a cell scraper and were lysed in ice-cold 5 mM Tris and 5-mM EDTA buffer (pH 7.4). The homogenates were centrifuged at 40000 x g x 20 minutes and the membranes were re-suspended in a small volume of ice-cold 5 mM Tris and 5-mM EDTA buffer (pH 7.4) and immediately frozen and stored at -70°C until use. On the experiment day, the cell membranes were re-suspended in a buffer containing 50 mM Tris (pH 7.4), 2.5 mM MgCl2, 10 µM pargyline (Fargin et al., Nature 335, 358-360 (1988)). […] The incubation was stopped by addition of ice-cold Tris buffer and rapid filtration through 0.2%-polyethyleneimine-pretreated Schleicher & Schuell filters. The inhibition of specific binding of the radioligands by the drugs was analysed to estimate the IC50 value by using the non-linear curve-fitting programme Allfit (De Lean et al., Am. J. Physiol. 235, E97-E102 (1978)). The IC50 value was converted to an affinity constant (Ki) by the equation of Cheng & Prusoff (Biochem. Pharmacol. 22, 3099-3108 (1973)). Data were expressed as mean of Ki.
# [3] = target: T3, human recombinant α1b adrenoceptor (Homo sapiens, UniProt P35368); assay: Radioligand binding ([3H]prazosin) on membranes of CHO cells expressing cloned α1b adrenoceptor; conditions: human cloned receptor, CHO cell membranes, 0.2 nM [3H]prazosin; read-out: Affinity (Ki) α1b
# T3 construct: expressed in transfected cells; host or cells: CHO cells (membranes)
# T3 sequence (P35368 1-520): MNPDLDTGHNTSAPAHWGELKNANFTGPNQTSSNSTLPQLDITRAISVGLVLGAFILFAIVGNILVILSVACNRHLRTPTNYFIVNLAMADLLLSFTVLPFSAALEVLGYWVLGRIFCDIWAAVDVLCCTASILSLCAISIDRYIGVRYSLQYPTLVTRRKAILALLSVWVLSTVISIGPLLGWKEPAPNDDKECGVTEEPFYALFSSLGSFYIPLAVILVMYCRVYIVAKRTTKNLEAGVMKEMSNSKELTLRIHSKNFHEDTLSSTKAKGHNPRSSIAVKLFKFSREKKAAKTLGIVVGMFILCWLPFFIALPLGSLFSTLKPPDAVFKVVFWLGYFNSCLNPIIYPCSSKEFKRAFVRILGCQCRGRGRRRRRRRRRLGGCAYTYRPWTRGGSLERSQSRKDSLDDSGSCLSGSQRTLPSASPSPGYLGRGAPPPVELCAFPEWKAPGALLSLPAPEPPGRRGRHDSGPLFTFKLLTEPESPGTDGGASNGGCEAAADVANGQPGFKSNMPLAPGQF
# Procedure: as §2
# Rat aorta α1D = target: T4, Rat aorta α1D (Rattus norvegicus, UniProt P23944); assay: Functional antagonism of noradrenaline-induced contraction, rat aorta strips; format: cell-based, Sprague Dawley rats; conditions: noradrenaline as agonist, 30 minutes incubation, Schild plot; read-out: Functional affinity pKB, Rat aorta α1D (converted)
# T4 construct: from tissue; host or cells: rat thoracic aorta, helicoidal strips
# T4 sequence (P23944 1-561): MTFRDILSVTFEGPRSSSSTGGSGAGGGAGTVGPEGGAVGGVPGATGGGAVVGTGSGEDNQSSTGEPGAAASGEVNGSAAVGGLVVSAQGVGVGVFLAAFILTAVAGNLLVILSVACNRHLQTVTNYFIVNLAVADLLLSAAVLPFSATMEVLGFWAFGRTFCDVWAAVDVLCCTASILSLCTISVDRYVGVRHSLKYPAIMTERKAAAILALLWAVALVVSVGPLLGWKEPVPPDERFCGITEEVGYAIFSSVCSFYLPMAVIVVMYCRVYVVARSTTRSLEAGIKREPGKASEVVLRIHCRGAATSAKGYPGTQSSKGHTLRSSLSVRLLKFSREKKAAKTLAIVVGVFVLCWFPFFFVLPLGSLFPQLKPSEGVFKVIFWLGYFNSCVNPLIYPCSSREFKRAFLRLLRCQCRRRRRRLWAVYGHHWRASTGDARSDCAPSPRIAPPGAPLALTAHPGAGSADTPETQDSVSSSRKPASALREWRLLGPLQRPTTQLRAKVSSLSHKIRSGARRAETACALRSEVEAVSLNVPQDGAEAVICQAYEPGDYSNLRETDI
# Procedure: In vitro assessment of functional antagonism for α1-adrenoceptor subtypes
# Thoracic aorta was obtained from Sprague Dawley rats, cut in helicoidal strips and placed in Krebs solution containing desmethylimipramine (0.1 µM), corticosterone (1 µM), propranol (1 µM) and yohimbine (0.1 µM). The strips were mounted for isotonic tension recording in an organ bath containing the above Krebs buffer enriched and aerated constantly with 95% O2 and 5% CO2, maintained at 37°C and loaded with 1.5 g. After an equilibration period, the strips were primed twice with 10 µM noradrenaline, then concentration/response-to-the-agonist curves were constructed before (basal) and after 30 minutes incubation with single antagonist concentrations (response). The Schild-plot parameters were evaluated by linear-regression analysis according to Tallarida and Murray (Manual of Pharmacologic Calculations with Computer Programs, 53-56, Springer-Verlag).
# [4] = target: T5, human recombinant α1a adrenoceptor (Homo sapiens, UniProt P35348); assay: Radioligand binding ([3H]prazosin) on membranes of CHO cells expressing cloned α1a adrenoceptor; conditions: human cloned receptor, CHO cell membranes, 0.2 nM [3H]prazosin; read-out: Affinity (Ki) α1a
# T5 construct: expressed in transfected cells; host or cells: CHO cells (membranes)
# T5 sequence (P35348 1-466): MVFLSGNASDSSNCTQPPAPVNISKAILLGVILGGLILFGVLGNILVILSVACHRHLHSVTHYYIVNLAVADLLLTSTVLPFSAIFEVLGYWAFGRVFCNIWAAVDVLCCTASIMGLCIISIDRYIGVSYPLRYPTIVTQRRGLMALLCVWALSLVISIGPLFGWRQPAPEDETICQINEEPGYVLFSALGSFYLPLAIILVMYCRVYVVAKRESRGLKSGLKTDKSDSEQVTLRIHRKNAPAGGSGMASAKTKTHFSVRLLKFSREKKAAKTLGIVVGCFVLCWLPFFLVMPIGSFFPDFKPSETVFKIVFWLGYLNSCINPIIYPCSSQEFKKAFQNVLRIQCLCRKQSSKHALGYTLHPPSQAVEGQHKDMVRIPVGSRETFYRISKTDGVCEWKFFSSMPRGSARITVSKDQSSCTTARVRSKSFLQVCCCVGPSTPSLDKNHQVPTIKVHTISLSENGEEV
# Procedure: as §1
# [5] = human cloned receptor, HeLa cell membranes, 1.2 nM [3H]8-OH-DPAT
Structure (SMILES),Ki [1] [nM],Ki [2] [nM],Ki [3] [nM],Kb (Rat aorta α1D) [nM],"Ki [2, 5] [nM]",Ki [4] [nM]
"O=C1CC2(CCCC2)CCN1CCN1CCN(c2cc(Cl)ccc2Cl)CC1 [Example 19, 8-{2-[4-(2,5-Dichlorophenyl)-1-piperazinyl]-ethyl}-8-azaspiro[4.5]decane-7-one]",,,10.6,1.29,17.4,
"Cc1ccc(Cl)c(N2CCN(CCN3C(=O)CC4(CCCC4)CC3=O)CC2)c1 [Example 3, 8-{2-[4-(2-Chloro-5-methylphenyl)-1-pirerazinyl]-ethyl}-8-azaspiro[4.5]decane-7,9-dione]",,,193,,69.5,126

# More lines, main results first:
Ki [1] [nM],Ki [2] [nM],Structure (SMILES),Ki [3] [nM],Kb (Rat aorta α1D) [nM],"Ki [2, 5] [nM]",Ki [4] [nM]
0.66,40.4,"O=C1CC2(CCCCC2)CCN1CCN1CCN(c2cc(Cl)ccc2Cl)CC1 [Example 25, 3-{2-[4-(2,5-Dichlorophenyl)-1-piperazinyl]-ethyl}-3-azaspiro[5.5]undecane-2-one]",,,,
0.96,35.3,"O=C1CC2(CCCCCC2)CC(=O)N1CCN1CCN(c2cc(Cl)ccc2Cl)CC1 [Example 26, 3-{2-[4-(2,5-Dichlorophenyl)-1-piperazinyl]-ethyl}-3-azaspiro[5.6]dodecane-2,4-dione]",,,,
7.78,> 1000,"O=C1CCC(=O)N1CCN1CCN(c2cc(Cl)ccc2Cl)CC1 [Example 12, 1-{2-[4-(2,5-Dichlorophenyl)-1-piperazinyl]-ethyl}-pyrrolidine-2,5-dione]",86.4,,,
